Assay results from PubChem BioAssay (NCI).
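Step 1: Grow cells in 96-well plates. Step 2: Expose to compound for 48 hours at 5 concentrations. Step 3: Interpolate endpoints linearly; if unreached, use highest concentration. TGI denotes the concentration required for complete inhibition of growth.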

Columns and labels:
Experiment in all cases: DTP human tumour cell line panel, 48 h
786-0 renal = system: 786-0 renal
A498 renal = system: A498 renal
A549 NSCLC = system: A549 NSCLC
ACHN renal = system: ACHN renal
BT-549 breast = system: BT-549 breast
CAKI-1 renal = system: CAKI-1 renal
CCRF-CEM leukemia = system: CCRF-CEM leukemia
COLO 205 colon = system: COLO 205 colon
DU-145 prostate = system: DU-145 prostate
EKVX NSCLC = system: EKVX NSCLC
HCC-2998 colon = system: HCC-2998 colon
HCT-116 colon = system: HCT-116 colon
HCT-15 colon = system: HCT-15 colon
HL-60(TB) leukemia = system: HL-60(TB) leukemia
HOP-62 NSCLC = system: HOP-62 NSCLC
HOP-92 NSCLC = system: HOP-92 NSCLC
HS 578T breast = system: HS 578T breast
HT29 colon = system: HT29 colon
IGROV1 ovarian = system: IGROV1 ovarian
K-562 leukemia = system: K-562 leukemia
KM12 colon = system: KM12 colon
LOX IMVI melanoma = system: LOX IMVI melanoma
M14 melanoma = system: M14 melanoma
MALME-3M melanoma = system: MALME-3M melanoma
MCF7 breast = system: MCF7 breast
MDA-MB-231 breast = system: MDA-MB-231 breast
MDA-MB-435 = system: MDA-MB-435
MDA-N = system: MDA-N
MOLT-4 leukemia = system: MOLT-4 leukemia
NCI-H226 lung = system: NCI-H226 lung
NCI-H23 lung = system: NCI-H23 lung
NCI-H460 lung = system: NCI-H460 lung
NCI-H522 lung = system: NCI-H522 lung
NCI/ADR-RES ovarian = system: NCI/ADR-RES ovarian
OVCAR-4 ovarian = system: OVCAR-4 ovarian
OVCAR-5 ovarian = system: OVCAR-5 ovarian
OVCAR-8 ovarian = system: OVCAR-8 ovarian
PC-3 prostate = system: PC-3 prostate
RPMI-8226 leukemia = system: RPMI-8226 leukemia
RXF 393 renal = system: RXF 393 renal
SF-268 CNS = system: SF-268 CNS
SF-295 CNS = system: SF-295 CNS
SK-MEL-2 melanoma = system: SK-MEL-2 melanoma
SK-MEL-28 melanoma = system: SK-MEL-28 melanoma
SK-MEL-5 melanoma = system: SK-MEL-5 melanoma
SK-OV-3 ovarian = system: SK-OV-3 ovarian
SN12C renal = system: SN12C renal
SNB-19 CNS = system: SNB-19 CNS
SNB-75 CNS = system: SNB-75 CNS
SR leukemia = system: SR leukemia
SW-620 colon = system: SW-620 colon
T-47D breast = system: T-47D breast
TK-10 renal = system: TK-10 renal
U251 CNS = system: U251 CNS
UACC-257 melanoma = system: UACC-257 melanoma
UACC-62 melanoma = system: UACC-62 melanoma
UO-31 renal = system: UO-31 renal
OVCAR-3 ovarian = system: OVCAR-3 ovarian
SF-539 CNS = system: SF-539 CNS

Measured: TGI

Cc1nnc(N)nc1/C=C\c1ccc(N(C)C)cc1
8.91 µM: HL-60(TB) leukemia
> 63.3 µM: CAKI-1 renal
> 66.9 µM: UACC-62 melanoma
> 59.2 µM: HCT-15 colon
17.1 µM: NCI-H522 lung
20.1 µM: LOX IMVI melanoma
23.8 µM: HCC-2998 colon
not listed: OVCAR-3 ovarian | SF-539 CNS
> 100 µM: all other assays above

CNN1C(=O)c2c(N)c(C#N)c(-c3ccccc3)c(-c3ccccc3)c2C1=O
not listed: HOP-62 NSCLC | HT29 colon | NCI-H23 lung | SK-OV-3 ovarian
> 100 µM: all other assays above
